The numbers were not newly measured in patent US8889636B2, “Anti-microbial compositions” (Biotelliga Holdings Limited, priority 2010, dated 2014), which cites them from elsewhere.

SMILES strings stand for the structures. Values after ≈ are worked out from the molar mass of the structure shown.

The subject of data set [1] is HIV-1 regulatory protein and its viral RNA binding site.
The test system of a further data set is Candidia albacans. The following applies: modest antifungal activity.

In the case of `CCC(C)CC(C)/C=C(/C=C(C)/C=C/C=C/C=C/C=C/C=C/c1cc2c(c(=O)o1)[C@H](O)[C@@H](O)[C@H](C(O)C(O)CO)O2)C(=O)O` (some centres unmarked) [Orevactaene], the “Inhibition of binding of HIV-1 regulatory protein and its viral RNA binding site” value in data set [1] is “found to inhibit binding”. Besides, the MIC with Candidia albacans was 250 µg/mL (≈ 408 µM).
